One assay has as its system MDA-MB-231 cells. The experiment in a line: Cell anti-proliferation / toxicity assay (CCK-8), MDA-MB-231. The class given is cell-based. On the procedure:
Initial tests designed around assessing whether a synergistic effect would be observed in real when a combination of G9a inhibitor and HDAC inhibitor used in conjunction.
Cell anti-proliferation assays were performed to determine the toxicity of these inhibitors. Several cell lines (MDA-MB-231, MCF-7 and A549) were incubated and then treated with varying concentrations of the inhibitors for 72 h, respectively. […] These compounds were further evaluated against the control cell line HEK293 to test their toxicity with a non-cancerous cell line.
A549, MDA-MB-231, MCF-7 and HEK293 cells were seeded at 8000-10000 cells (100 μl) in white 96-well plates and pre-incubate the plate for 24 h under standard cell culture conditions, respectively. And then the cells were exposed to the different inhibitors with various concentrations for 72 h. Finally, 10 μl of CCK-8 kit solution was added to each well and incubated for 3-4 hours under standard cell culture conditions, and the 96 well plates were measured the absorbance at 450 nm using Perkin–Elmer Wallac Victor ^3V 1420 multi label plate reader (Perkin–Elmer, Wellesley, USA). EC50s were calculated using GraphPad Prizm statistical package with sigmoidal variable slope dose response curve fit.

Another assay deals with MCF-7 cells. Put plainly: Cell anti-proliferation / toxicity assay (CCK-8), MCF-7. Type of assay: cell-based. On the procedure: (§1) Cell anti-proliferation assays were performed to determine the toxicity of these inhibitors. […] These compounds were further evaluated against the control cell line HEK293 to test their toxicity with a non-cancerous cell line.
(§2) And then the cells were exposed to the different inhibitors with various concentrations for 72 h. […] EC50s were calculated using GraphPad Prizm statistical package with sigmoidal variable slope dose response curve fit.

Assay [1] deals with T1, Mouse histone methyltransferase G9a (969-1263) (Mus musculus, UniProt Q9Z148).
T1 construct: The 6His-sumo mG9a (969-1263) protein was purified using the following procedure; 6His-sumo (N, cleaved yes); made in house; host or cells: Escherichia coli BL21 (DE3)
T1 sequence (Q9Z148 969-1263): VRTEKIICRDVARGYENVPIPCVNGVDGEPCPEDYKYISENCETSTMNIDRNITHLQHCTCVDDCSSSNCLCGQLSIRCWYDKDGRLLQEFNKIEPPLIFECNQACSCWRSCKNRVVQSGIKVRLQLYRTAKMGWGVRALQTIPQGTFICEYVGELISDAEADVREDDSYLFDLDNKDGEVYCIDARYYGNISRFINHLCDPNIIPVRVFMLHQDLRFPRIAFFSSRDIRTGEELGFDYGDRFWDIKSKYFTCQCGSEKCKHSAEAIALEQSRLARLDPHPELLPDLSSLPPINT
The experiment in a line: MALDI-TOF methylation study of G9a enzymatic activity (H3 peptide, SAM). Type of assay: biochemical. To be noted: Supplementary Table 1; inhibitor 5 μM, 30 min; average of 3 values. As for the experimental part: Figure 3 compounds were synthesized from the commercially available starting material 1. An initial displacement reaction using a primary amine was used to introduce the C4 selective substitution, with the second displacement to introduce the linker at the C2 position following the microwave assisted reaction previously reported. Boc-protected ethylene diamine was treated with compound 2 at 160°C in a microwave for 10 min to yield product 3 with excellent yield. Afterward, the amine 3 was deprotected with TFA/DCM, and the free amine was treated with corresponding monomethyl esters (carbon chain 2-6) in the presence of coupling reagent EDCI and HOBt for about 8 hours to produce mono methyl ester substituted at the C2 position. The ester compounds further treated with hydroxylamine in water to get the corresponding hydroxamic acid derivatives, which were purified using reverse phase flash chromatography to obtain compounds 4-7 and 4a-7a in good yield. Synthesis of compounds in Figure 4 requires the C6 demethoxy core, and this was synthesized according to the reported procedure to yield 10 [45]. […] Compounds with the HDAC pharmacophore at the C4 position (Figure 2B) were synthesized from the starting material 1. […] A parallel synthesis and testing strategy were used in establishing the primary SAR, with the clear rationalization of the structure and activity at each stage we could reduce the synthetic targets. Initially, we evaluated the G9a potential after the introduction of HDAC pharmacophore. A biochemical assay using MALDI-TOF was used to visualize the effects of the synthesized compounds on G9a enzymatic activity, we carried out a biochemical reaction involving target enzyme G9a, methyl donor SAM and substrate H3 peptide at a concentration of 400 nM, 10 μM and 5 μM respectively.
Mouse histone methyltransferase G9a (969-1263) cDNA was amplified from the cDNA of BALB/c mouse thymus, and the fragment was sub-cloned into a vector with a 6His-sumo tag. The mouse G9a (mG9a) was expressed in Escherichia coli BL21 (DE3) by the addition of 1 mM isopropyl-1-thio-D-galactopyranoside (IPTG) and incubated overnight at 16°C.
The in vitro inhibition of G9a by the synthesized compounds were measured by MALDI-TOF mass spectrum (Bruker MALDI TOF/TOF Analyzer). 400 nM purified G9a, 5 μM synthesized histone H3 (1-21) and 10 μM non-radioactive S-adenosyl methionine (Sigma) were added in reaction buffer (50 mM HEPES pH 8.0, 5 μg/ml BSA and 0.1% β-Mercaptoethanol) with or without inhibitors (5 μM). The reaction was incubated at room temperature for 30 min, and stopped by TFA. 1 μl of the sample was mixed with CHCA matrix and m/z peaks were obtained at reflection positive mode. The results of mass spectrum were analyzed using the Bruker flex analysis software, a detailed description of data processing is provided as supplementary information (S3).
[…]
MALDI spectrums were collected using Bruker flex % conversion to product is also C, from this to get the control software and analyzed by flex analysis. After %maximal activity (%MA), C was compared to the % labelling each cluster peaks of H3K9Me0, H3K9Me1 conversion when no inhibitor was used (D). and H3K9Me2 for all of the tested concentrations, area Finally % inhibition was found by subtracting under the cluster (AUC) were extracted by using the same %MA from 100 […]
flex analysis software. % abundance of each peak was Example: % methylation levels and % inhibition calculated by following formula, when used 5 μM compound 14
A = % Abundance of (H3K9Me0) = area of A = 13.09
B = % Abundance of (H3K9Me1) = area of % conversion when no inhibitor was used D = 84.43 H3K9Me1/ (area of H3K9Me0+area of H3K9Me1 + area (average of six measurements) […]

In assay [2] the test system is HDAC. The experiment in a line: Homogeneous cellular histone deacetylase assay, Hela. Particulars: Supplementary Table 2; NA = not active up to highest concentration tested (100 μM); >100 = IC50 not reached at 100 μM; read-out: IC50-HDAC Hela. Type of assay: cell-based, human. On the procedure:
(§3) The enzymatic activity of HDAC was measured in intact cells using the homogeneous cellular assay method. A cell-permeable peptide Boc-K(Ac)-AMC used as the HDAC substrate, after deacetylation it is cleaved by trypsin to release the fluorescent 7-amino-4-methylcoumarin (AMC) and further quantified.
(§4) The manual assay was developed by Thomas's group. […] After 24 h, 9 μl inhibitors with different concentration were added to the HeLa cells and incubation was continued for 3 h under cell culture conditions. After this treatment period, 10 μl of a 2 mM stock solution of the substrate Boc-K(Ac)-AMC was added into the 96 well plates with Hela cells and inhibitors. […] A549 and K562 cell lines used the same method, respectively. IC50s were calculated using GraphPad Prizm statistical package with sigmoidal variable slope dose response curve fit.

In assay [3] the test system is HDAC. The experiment in a line: Homogeneous cellular histone deacetylase assay, K562. The class given is cell-based, human. To be noted: Supplementary Table 2; NA = not active up to highest concentration tested (100 μM); >100 = IC50 not reached at 100 μM; read-out: IC50-HDAC K562. On the procedure:
as §3, §4

Assay [4] deals with HDAC. The experiment in a line: Homogeneous cellular histone deacetylase assay, A549. The class given is cell-based, human. Particulars: Supplementary Table 2; NA = not active up to highest concentration tested (100 μM); >100 = IC50 not reached at 100 μM. On the procedure: as §3, §4
A further assay has as its system A549 cells. The experiment in a line: Cell anti-proliferation / toxicity assay (CCK-8), A549. To be noted: Homo sapiens, Table 6, 72 h, >100 = not reached at highest tested concentration (100 μM). The class given is cell-based. As for the experimental part: as §1, §2
A further assay has as its system HEK293 cells. Put plainly: Cell anti-proliferation / toxicity assay (CCK-8), HEK293 normal cell line. Type of assay: cell-based. To be noted: Homo sapiens, Table 6, 72 h. As for the experimental part: as §1, §2
Setting [5] is: Homo sapiens, MDA-MB-231, Supplementary Table 4, 72 h, CCK-8, >100 = not reached at 100 μM, read-out: EC50 MDA-MB-231.
Setting [6] is: Homo sapiens, MCF7, Supplementary Table 4, 72 h, CCK-8, >100 = not reached at 100 μM, read-out: EC50 MCF-7.
[7] abbreviates: Homo sapiens, MDA-MB-231, Table 6, 72 h, CCK-8, mean ± SD of triplicates, read-out: EC50 MDA-MB-231.
[8] abbreviates: Homo sapiens, MDA-MB-231, read-out: EC50, MDA-MB-231 (combination study).

Read-outs that look alike come from different tables or passages of the source.

We go through eight compounds from paper PMC5609913, “Structure based design, synthesis and activity studies of small hybrid molecules as HDAC and G9a dual inhibitors” (Oncotarget, 2017).

For the compound `COc1cc2nc(NCCNC(=O)CCCCC(=O)NO)nc(NC3CCN(C(C)C)CC3)c2cc1OC` [Compound 6a, N1-hydroxy-N6-(2-((4-((1-isopropylpiperidin-4-yl)amino)-6,7-dimethoxyquinazolin-2-yl)amino)ethyl)adipamide], the EC50 in the assay on MDA-MB-231 cells (setting [5]) and with MCF-7 cells (setting [6]) was more than 100 µM in each case. In assay [1], this compound displayed an inhibition at 5 µM of 50.6 ± 16.5%.
On to `COc1ccc2c(NCCNC(=O)CCCCCCC(=O)NO)nc(N3CCCN(C)CC3)nc2c1` [Compound 21, N1-hydroxy-N8-(2-((7-methoxy-2-(4-methyl-1,4-diazepan-1-yl)quinazolin-4 yl)amino)ethyl)octanediamide], for which the EC50 in the assay on MDA-MB-231 cells (setting [5]) and with MCF-7 cells (setting [6]) was more than 100 µM throughout. The IC50 in the assay with HDAC [2], in the assay on HDAC [3] and with HDAC [4] was more than 100 µM throughout. Moreover, the inhibition at 5 µM in assay [1] is 22.8 ± 26.7%.
For the compound `CN1CCCN(c2nc(NC3CCN(Cc4ccccc4)CC3)c3ccc(OCCCCCCCC(=O)NO)cc3n2)CC1` [Compound 30, 8-((4-((1-benzylpiperidin-4-yl)amino)-2-(4-methyl-1,4-diazepan-1-yl)quinazolin-7-yl)oxy)-N-hydroxyoctanamide], the concentration for a half-maximal effect (EC50) with MDA-MB-231 cells (Supplementary Table 4, 72 h, CCK-8, >100 = not reached at 100 μM, read-out: EC50 MDA-MB-231) was 24 ± 3.64 µM; in the assay on MCF-7 cells (Supplementary Table 4, 72 h, CCK-8, >100 = not reached at 100 μM, read-out: EC50 MCF-7), more than 100 µM.
Regarding `COc1cc2nc(N3CCCN(C)CC3)nc(NC3CCN(Cc4ccccc4)CC3)c2cc1OC` [BIX-01294, reference compound], the half-maximal effective concentration (EC50) in the assay on MDA-MB-231 cells (setting [7]) is 2.16 ± 0.88 µM; with MDA-MB-231 cells (setting [8]) it was 2.16 ± 0.88 µM; in the assay on MCF-7 cells (Homo sapiens, MCF7, Table 6, 72 h, CCK-8, mean ± SD of triplicates, read-out: EC50 MCF-7), 8.1 ± 1.99 µM; in the assay with MCF-7 cells (Homo sapiens, MCF7, read-out: EC50, MCF-7 (combination study)), 8.1 ± 1.99 µM; in the assay on A549 cells it was 21.7 ± 2.73 µM; in the assay with HEK293 cells, 2.05 ± 0.98 µM. In assay [1], at 5 µM the inhibition was 77.7 ± 5.73%.
As to `COc1cc2nc(NCCNC(=O)CCCCC(=O)NO)nc(NC3CCN(C)CC3)c2cc1OC` [Compound 6, N1-(2-((6,7-dimethoxy-4-((1-methylpiperidin-4-yl)amino)quinazolin-2-yl)amino)ethyl)-N6-hydroxyadipamide], the EC50 in the assay on MDA-MB-231 cells (setting [5]) and in the assay with MCF-7 cells (setting [6]) was more than 100 µM throughout. Further, in assay [1], the inhibition at 5 µM amounted to 26.6 ± 11.3%.
For the compound `O=C(CCCCCCC(=O)Nc1ccccc1)NO` [SAHA, reference compound], the concentration for a half-maximal effect (EC50) in the assay with MDA-MB-231 cells (setting [7]) and in the assay on MDA-MB-231 cells (setting [8]) was 2.87 ± 0.84 µM throughout.
Turning to `COc1cc2c(NC3CCN(C(C)C)CC3)nc(N3CCCN(C)CC3)nc2cc1OCCCCCCC(=O)NO` [Compound 26, N-hydroxy-7-((4-((1-isopropylpiperidin-4-yl)amino)-6-methoxy-2-(4-methyl-1,4-diazepan-1-yl)quinazolin-7-yl)oxy)heptanamide], the values for the concentration for a half-maximal effect (EC50) in the assay on MDA-MB-231 cells (setting [5]) and in the assay on MCF-7 cells (setting [6]) were 31.3 ± 3.3 µM and more than 100 µM, respectively.
For the compound `COc1cc2nc(NCCNC(=O)CCCCCC(=O)NO)nc(NC3CCN(C)CC3)c2cc1OC` [Compound 5, N1-(2-((6,7-dimethoxy-4-((1-methylpiperidin-4-yl)amino)quinazolin-2-yl)amino)ethyl)-N7-hydroxyheptanediamide], the EC50 in the assay with MDA-MB-231 cells (setting [5]) and in the assay with MCF-7 cells (setting [6]) was more than 100 µM each time. For the same compound, testing at 5 µM in assay [1] gave an inhibition of 65 ± 1.95%.

As a reminder, the EC50 is the concentration giving half of the maximal effect. Usually inhibition stands for the relative decrease from the control value, in per cent. Low readings indicate little suppression, high ones strong suppression. A word on the IC50: it is the concentration at which inhibition is half-maximal.
